According to patent US20250326765A1, “PDE4B INHIBITOR AND USE THEREOF” (XIZANG HAISCO PHARMACEUTICAL CO., LTD., priority 2022, published 2025):

Assays:
PDE4B1 = target: T1, PDE4B1 (Homo sapiens, UniProt Q07343); test: Effect of compounds on PDE4B1 activity (IMAP fluorescence polarization kit); assay type: biochemical; settings: class symbols
T1 construct: purchased BPS 60041
Description: The IMAP Reaction Buffer containing 0.1% BSA (5×) in the kit was diluted into a 1-fold reaction buffer containing 1 mM DTT. 0.12 nM PDE4B1 (BPS, Cat #60041) was added to the 1-fold reaction buffer to form a 2-fold enzyme solution. 10 μL of the 2-fold enzyme solution was added to wells of a 384-well reaction plate. For the negative control well, 10 μL of the 1-fold reaction buffer was used instead of the enzyme solution. Centrifugation at 1000 rpm for 1 minute and incubation at room temperature for 15 minutes were carried out. 0.2 uM FAM-labeled cAMP (FAM-cAMP, Molecular Device, Cat #R7506) was added to the 1-fold reaction buffer to form a 2-fold substrate solution. 10 μL of the 2-fold substrate solution was added to each well of the 384-well reaction plate. Centrifugation at 1000 rpm for 1 minute was carried out. A reaction was carried out at room temperature for 20 minutes. IMAP Progressive Binding Buffer A (5×), IMAP Progressive Binding Buffer B (5×), and IMAP Progressive Binding Reagent (provided by IMAP FP IPP Explorer Kit) were prepared into a reaction stop solution according to the instructions for use. 60 μL of an […] reaction stop solution was added to each well of the 384-well reaction plate to stop the reaction, and the reaction product was centrifuged at 1000 rpm for 1 minute. Incubation at room temperature in the dark for 60 minutes was carried out. The mP values (Ex480/Em535 (s), Em535 (p)) were read by a microplate reader (Envision).
FP was usually represented by mP value. mP value for FP measurement=1000*(S−G*P)/(S+G*P) • S: fluorescence intensity in parallel direction • P: fluorescence intensity in perpendicular direction • G: G factor=1
[formula] • mP(sample): mP of the test compound in a reaction well • mP(negative control): mP in the negative control well • mP(positive control): mP in the positive control well
According to the calculated inhibition rate at each concentration, the IC50 value of each compound was calculated by XLFit excel add-in version 5.4.0.8 software.
Y=Bottom+(Top−Bottom)/(1+(IC50/X)^HillSlope) Fitting formula: […]

[1] = Inhibition of LPS-induced TNF-α release from human peripheral blood mononuclear cells in vitro; assay type: cell-based; settings: PBMC, hPBMC, 100 ng/mL LPS, 4 h; for IC50: class symbols, read-out: Re IC50 (nM) (relative IC50), TNF-α induced by LPS
Description: Normal human peripheral blood which was anticoagulated (citric acid anticoagulation) was collected, and hPBMCs were prepared by Ficoll-Paque PLUS (Cytiva, Cat #17144002, density 1.077 g/mL). The concentration of hPBMC cells was adjusted to 0.25×10^6 cells/mL with RPMI1640 medium and inoculated into a 96-well plate in an amount of 50000 cells per well. Subsequently, different concentrations of drugs were added for pre-incubation for 1 h (the DMSO final concentration was 0.1%, and the positive and negative control wells had the same volume of RPMI1640 containing 0.1% DMSO). After the pre-incubation was complete, 100 ng/mL LPS (SIGMA, L2630) was added to the compound and positive control wells, and the negative control well had the same volume of RPMI1640 containing 0.1% DMSO. Incubation was carried out for 4 h in an incubator at 37° C. and 5% CO2. The cell supernatant was collected, and the content of TNF-α in the supernatant sample was detected by human TNF-α Elisa quantitative test kit (Sino Biological, Cat #KIT10602). The IC50 value was calculated using GraphPad Prism software.

[2] = target: T2, hERG potassium ion channel (Homo sapiens, UniProt Q12809); test: Test for hERG potassium ion channel (manual patch-clamp, CHO cells); assay type: cell-based; settings: CHO cells stably expressing hERG, whole cell patch-clamp; read-out: IC50, inhibition of hERG potassium channel current
T2 construct: expressed in transfected cells
T2 sequence (Q12809 whole entry): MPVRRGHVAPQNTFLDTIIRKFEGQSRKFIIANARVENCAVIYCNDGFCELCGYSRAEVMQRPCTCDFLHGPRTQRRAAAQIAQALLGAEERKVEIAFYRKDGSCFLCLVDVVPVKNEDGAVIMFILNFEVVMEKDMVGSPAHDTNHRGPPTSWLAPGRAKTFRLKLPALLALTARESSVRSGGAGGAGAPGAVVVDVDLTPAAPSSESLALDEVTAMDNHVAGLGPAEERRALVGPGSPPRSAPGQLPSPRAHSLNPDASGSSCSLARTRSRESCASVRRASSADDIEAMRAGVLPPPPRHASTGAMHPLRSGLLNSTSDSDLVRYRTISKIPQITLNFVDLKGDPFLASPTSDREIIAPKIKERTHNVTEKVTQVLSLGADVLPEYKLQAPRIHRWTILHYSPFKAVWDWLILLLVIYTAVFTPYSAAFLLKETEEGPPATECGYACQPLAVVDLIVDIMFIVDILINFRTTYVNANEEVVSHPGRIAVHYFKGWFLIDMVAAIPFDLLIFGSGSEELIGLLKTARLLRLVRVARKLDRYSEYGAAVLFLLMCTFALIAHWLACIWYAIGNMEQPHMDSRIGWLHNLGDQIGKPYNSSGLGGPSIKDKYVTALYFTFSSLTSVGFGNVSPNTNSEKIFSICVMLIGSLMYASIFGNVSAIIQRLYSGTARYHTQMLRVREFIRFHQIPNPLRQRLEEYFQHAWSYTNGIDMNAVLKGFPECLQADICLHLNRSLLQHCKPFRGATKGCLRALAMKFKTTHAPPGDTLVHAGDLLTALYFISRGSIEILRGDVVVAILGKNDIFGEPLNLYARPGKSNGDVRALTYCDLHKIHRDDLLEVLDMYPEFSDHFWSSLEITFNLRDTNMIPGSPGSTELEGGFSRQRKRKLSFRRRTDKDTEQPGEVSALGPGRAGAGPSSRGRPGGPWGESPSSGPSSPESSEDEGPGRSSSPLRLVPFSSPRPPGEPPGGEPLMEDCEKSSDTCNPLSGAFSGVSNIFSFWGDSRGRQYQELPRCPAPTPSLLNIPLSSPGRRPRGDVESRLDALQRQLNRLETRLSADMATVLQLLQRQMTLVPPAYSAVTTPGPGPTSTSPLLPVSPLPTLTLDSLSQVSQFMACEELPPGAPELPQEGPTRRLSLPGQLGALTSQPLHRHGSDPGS
Text: Experimental Platform: Electrophysiological Manual Patch-Clamp System
Cell line: Chinese hamster ovary (CHO) cell line stably expressing hERG potassium ion channel
Experimental method: CHO (Chinese Hamster Ovary) cells stably expressing hERG potassium channel were subjected to a whole cell patch-clamp technique to record the hERG potassium channel current at room temperature. The glass microelectrode was made of a glass electrode blank (BF150-86-10, Sutter) by a puller. The tip resistance after filling the liquid in the electrode was about 2-5 MQ. The glass microelectrode can be connected to the patch-clamp amplifier by inserting the glass microelectrode into an amplifier probe. The clamping voltage and data recording were controlled and recorded by the pClamp 10 software through a computer. The sampling frequency was 10 kHz, and the filtering frequency was 2 kHz. After the whole cell records were obtained, the cells were clamped at −80 mV, and the step voltage that induced the hERG potassium current (IhERG) was depolarized from −80 mV to +20 mV for 2 s, then repolarized to −50 mV, and returned to −80 mV after 1 s. This voltage stimulation was given every 10 s, and the administration process was started after the hERG potassium current was confirmed to be stable (at least 1 minute). The compound was administered for at least 1 minute at each test concentration, and at least 2 cells (n: 2) were tested at each concentration.
Data processing: Data analysis processing was carried out by using pClamp 10, GraphPad Prism 5, and Excel software. The degree of inhibition on the hERG potassium current (peak value of hERG tail current induced at −50 mV) at different compound concentrations was calculated by the following formula:
[formula] • where Inhibition % represents the percentage inhibition of the compound on the hERG potassium current, and I and Io represent the amplitude of the hERG potassium current after and before administration, respectively.
Compound IC50 was calculated using GraphPad Prism 5 software by fitting according to the following equation: […]

T1 sequence (Q07343 whole entry): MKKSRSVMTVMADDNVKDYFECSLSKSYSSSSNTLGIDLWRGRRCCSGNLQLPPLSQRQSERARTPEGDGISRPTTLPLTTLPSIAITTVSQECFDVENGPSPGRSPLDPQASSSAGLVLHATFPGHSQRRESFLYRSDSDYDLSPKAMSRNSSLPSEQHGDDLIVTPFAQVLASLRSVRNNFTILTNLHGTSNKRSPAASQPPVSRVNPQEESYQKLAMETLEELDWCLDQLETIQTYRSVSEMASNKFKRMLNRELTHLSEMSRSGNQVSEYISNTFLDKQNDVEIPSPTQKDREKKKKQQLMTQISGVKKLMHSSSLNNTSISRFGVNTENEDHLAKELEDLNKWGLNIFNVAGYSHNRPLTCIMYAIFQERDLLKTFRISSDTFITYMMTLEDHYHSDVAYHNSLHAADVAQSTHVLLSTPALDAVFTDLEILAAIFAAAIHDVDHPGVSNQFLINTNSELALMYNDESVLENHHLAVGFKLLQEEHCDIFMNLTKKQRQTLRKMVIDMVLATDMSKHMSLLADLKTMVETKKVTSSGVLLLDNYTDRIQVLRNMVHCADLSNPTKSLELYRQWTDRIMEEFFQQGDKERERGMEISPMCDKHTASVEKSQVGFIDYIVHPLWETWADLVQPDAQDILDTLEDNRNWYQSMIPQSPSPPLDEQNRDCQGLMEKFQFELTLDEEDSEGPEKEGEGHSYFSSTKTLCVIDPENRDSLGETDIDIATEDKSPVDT

SMILES: [O-][S@+]1CCc2nc(N3C[C@H]4CN(c5ccc6c(c5)CC6)C[C@H]4C3)nc(NC3(CO)CCC3)c21 [Compound 31]
- IC50 (PDE4B1): < 10 nM
- IC50 [1]: 50 to 100 nM
- Emax ([1]; read-out: Max inhibition (%)): 75.4%
- IC50 [2]: 12200 nM

SMILES: C#Cc1cnc(C2=CCN(c3nc4c(c(NC5(CO)CCC5)n3)[S+]([O-])CC4)CC2)nc1 (stereo not shown) [Compound 37]
- IC50 (PDE4B1): < 10 nM
- IC50 [1]: < 10 nM
- IC50 [2]: 13300 nM
